According to patent US4252812A, “2-Substituted-trans-5-ar yl-2,3,4,4a,5,9b-hexahydro-1H-pyrido[4,3-b]indoles” (Pfizer Inc., priority 1980, dated 1981):
Counter-ions that a name gives are not always drawn. Like-named read-outs stand apart in the source and are kept apart here.

Legend:
[1] = test system: amphetamine-induced symptoms (cage movement) in rats; assay: Antagonism of amphetamine stereotypy in rats; format: in vivo, rat; conditions: for ED50: Rattus norvegicus; for ED50 (micrograms/kilograms) 1 Hr. / ED50 (mg./kg.) 1 Hr.: 60 min; for ED50 (micrograms/kilograms) 5 Hrs. / ED50 (mg./kg.) 5 Hrs.: 300 min; for ED50 (micrograms/kilograms) 24 Hrs. / ED50 (mg./kg.) 24 Hrs.: 1440 min; for ED50 (mg./kg.) 1 Hr. / ED50 (mg./kg.) 5 Hrs. / ED50 (mg./kg.) 24 Hrs. / ED50 (mg./kg.) 72 Hrs. / ED50 (mg./kg.) 48 Hrs.: Part D, enantiomers from Example 21; for ED50 (mg./kg.) 72 Hrs.: 4320 min; for ED50 (mg./kg.) 48 Hrs.: 2880 min
Method: Antagonism of Amphetamine Stereotypy in Rats Test Procedures and Results
The effects of the compounds of the present invention on prominent amphetamine-induced symptoms were studied in rats by a rating scale modeled after the one reported by Quinton and Halliwell, and Weissman. Groups of five rats were placed in a covered plastic cage measuring approximately 26 cm.×42 cm.×16 cm. […] They were then treated 1, 5 and 24 hrs. later with d-amphetamine sulfate, 5 mg./kg. intraperitoneally (i.p.). […] On the basis of dose-response data after amphetamine it was possible to determine the effective dose of the compound necessary to antagonize or block the characteristic amphetamine behavior of cage movement for fifty percent of the rats tested (ED50). The time of rating chosen coincides with the peak action of amphetamine which is 60-80 min. after treatment with this agent.
Employing the above-described procedure, the following 4a,9b-trans compounds were tested for their ability to block the behavior effects of amphetamine, the results being reported as the ED50 in mg./kg. at the indicated times: [drawing 31]
A. The following results were obtained on the mixture of diastereomers for those compounds wherein R contains a secondary alcohol group and on the single diastereomer of the other 4a, 9b-trans hexahydro-pyrido-indoles.
B. The results of tests in which compounds of the invention reported in Part A, above are compared with the corresponding δ-substituted-5-aryl-1,2,3,4-tetrahydropyrido[4,3-b]indoles of U.S. Pat. No. 4,001,263 are summarized below. For each pair the results obtained on the prior art compound (a) are given first and the results for the compound of the invention (b) are given second. Where indicated the test compound was also administered orally (p.o.) and tests were carried out for 48 hours.
C. Test results expressed as micrograms/kilograms, obtained on the diastereomers αβ and γδ separated in Example 13 and each of the enantiomers α, β, γ and δ resolved by the procedure of Example 14 are shown below. In each case the compounds are of the formula
The tests were carried out for 72 hours.

[2] = target: dopamine receptors (Rattus norvegicus, UniProt P61169); assay: Inhibition of 3H-spiroperidol binding to dopamine receptors; set-up: species or system rat (Sprague-Dawley CD males); conditions: rat corpus striatum; 0.5 nM 3H-spiroperidol; 10 min at 37° C.; hydrochloride salts
dopamine receptors, sequence (P61169 whole entry): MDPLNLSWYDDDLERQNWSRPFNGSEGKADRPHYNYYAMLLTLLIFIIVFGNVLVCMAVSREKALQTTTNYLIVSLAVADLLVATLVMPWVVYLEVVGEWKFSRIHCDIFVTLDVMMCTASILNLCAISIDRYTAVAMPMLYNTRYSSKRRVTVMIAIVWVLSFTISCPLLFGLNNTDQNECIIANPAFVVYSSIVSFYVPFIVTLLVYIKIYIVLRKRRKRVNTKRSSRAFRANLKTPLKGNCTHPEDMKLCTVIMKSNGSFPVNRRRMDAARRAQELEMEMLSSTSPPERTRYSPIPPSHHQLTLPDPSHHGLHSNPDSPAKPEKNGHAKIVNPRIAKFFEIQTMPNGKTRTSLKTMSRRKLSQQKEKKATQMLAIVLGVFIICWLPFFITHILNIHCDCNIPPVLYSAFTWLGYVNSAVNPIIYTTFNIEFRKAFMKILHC

[3] = sc, 1 h, Part A, 1 hr, test compound s.c. (method), read-out: ED50 (mg./kg.) 1 Hr.
[4] = sc, 5 h, Part A, 5 hr, test compound s.c. (method), read-out: ED50 (mg./kg.) 5 Hr.
[5] = sc, 24 h, Part A, 24 hrs, test compound s.c. (method), read-out: ED50 (mg./kg.) 24 Hrs.
[6] = sc, 1 h, read-out: ED50 (mg./kg.) 1 Hr.
[7] = sc, 5 h, read-out: ED50 (mg./kg.) 5 Hr.
[8] = ip, 1 h, Part B, 1 hr, i.p., read-out: ED50 (mg./kg.) 1 Hr.
[9] = ip, 5 h, Part B, 5 hrs, i.p., read-out: ED50 (mg./kg.) 5 Hrs.
[10] = ip, 24 h, Part B, 24 hrs, i.p., read-out: ED50 (mg./kg.) 24 Hrs.

Structure (SMILES): OC(CCCN1CC[C@@H]2[C@@H](C1)c1cc(F)ccc1N2c1ccc(F)cc1)c1ccccc1 (relative stereo)
- ED50 [1, 3]: 0.1 to 0.32 mg/kg
- ED50 [1, 4]: 0.1 to 0.32 mg/kg
- ED50 [1, 5]: < 0.32 mg/kg

Structure (SMILES): CCN1CCC2C(C1)c1ccccc1N2c1ccccc1 (stereo not shown) [X1=H, Y1=H, R=C2 H5, reference compound]
- ED50 [1, 6]: ~1 mg/kg
- ED50 [1, 7]: > 3.2 mg/kg

Structure (SMILES): OC(CCCN1CCC2C(C1)c1cc(F)ccc1N2c1ccc(F)cc1)c1ccc(F)cc1 (single isomer, unassigned) [α, 8-fluoro-5-(p-fluorophenyl)-2-[4-hydroxy-4-(p-fluorophenyl)butyl]-2,3,4,4a,5,9b-hexahydro-1H-pyrido[4,3-b]indole]
- ED50 (micrograms/kilograms) 1 Hr. ([1]; Part C, 1 hr, s.c. (method)): 120 micrograms/kilograms
- ED50 (micrograms/kilograms) 5 Hrs. ([1]; Part C, 5 hrs, s.c. (method)): 32-100 micrograms/kilograms
- ED50 (micrograms/kilograms) 24 Hrs. ([1]; Part C, 24 hrs, s.c. (method)): 32-100 micrograms/kilograms
- ED50 (mg./kg.) 1 Hr. ([1]; 1 hr): 0.023 mg/kg
- ED50 (mg./kg.) 5 Hrs. ([1]; 5 hrs): 0.014 mg/kg
- ED50 (mg./kg.) 24 Hrs. ([1]; 24 hrs): 0.033 mg/kg
- ED50 (mg./kg.) 72 Hrs. [1]: > 10 mg/kg

Structure (SMILES): c1ccc(CN2CC[C@@H]3[C@@H](C2)c2ccccc2N3c2ccccc2)cc1 (relative stereo) [X1=H, Y1=H, R=C6 H5 CH2, dl-trans-2-benzyl-2,3,4,4a,5,9b-hexahydro-5-phenyl-1H-pyrido-[4,3-b]indole Hydrochloride, reference compound]
- ED50 [1, 3]: ~10 mg/kg
- ED50 [1, 4]: 3.2 to 32 mg/kg
- ED50 [1, 5]: > 3.2 mg/kg

Structure (SMILES): OC(CCCN1CCC2C(C1)c1cc(F)ccc1N2c1ccc(F)cc1)c1ccc(F)cc1 (single isomer, unassigned) [δ, 8-fluoro-5-(p-fluorophenyl)-2-[4-hydroxy-4-(p-fluorophenyl)butyl]-2,3,4,4a,5,9b-hexahydro-1H-pyrido[4,3-b]indole]
- ED50 (micrograms/kilograms) 1 Hr. ([1]; Part C, 1 hr, s.c. (method)): > 1000 micrograms/kilograms
- ED50 (micrograms/kilograms) 5 Hrs. ([1]; Part C, 5 hrs, s.c. (method)): 560 micrograms/kilograms
- ED50 (micrograms/kilograms) 24 Hrs. ([1]; Part C, 24 hrs, s.c. (method)): 320-1000 micrograms/kilograms
- ED50 (mg./kg.) 1 Hr. ([1]; 1 hr): > 10 mg/kg
- ED50 (mg./kg.) 5 Hrs. ([1]; 5 hrs): 5.7 mg/kg
- ED50 (mg./kg.) 24 Hrs. ([1]; 24 hrs): > 10 mg/kg
- ED50 (mg./kg.) 48 Hrs. ([1]; 48 hrs): > 10 mg/kg
- ED50 (mg./kg.) 72 Hrs. [1]: > 10 mg/kg

Structure (SMILES): O=C(CCCN1CC[C@@H]2[C@@H](C1)c1cc(F)ccc1N2c1ccc(F)cc1)c1ccc(F)cc1 (relative stereo)
- ED50 [1, 8]: < 1 mg/kg
- ED50 [1, 9]: < 1 mg/kg
- ED50 [1, 10]: < 1 mg/kg
- ED50 [1, 3]: < 1 mg/kg
- ED50 [1, 4]: < 1 mg/kg
- ED50 [1, 5]: < 1 mg/kg

Structure (SMILES): c1ccc(CCCN2CC[C@@H]3[C@@H](C2)c2ccccc2N3c2ccccc2)cc1 (relative stereo) [X1=H, Y1=H, R=C6 H5 (CH2)3, reference compound]
- ED50 [1, 3]: 3.2 to 10 mg/kg
- ED50 [1, 4]: 3.2 to 10 mg/kg
- ED50 [1, 5]: > 10 mg/kg

Structure (SMILES): OC(CCCN1CC[C@@H]2[C@@H](C1)c1ccccc1N2c1ccccc1)c1ccccc1 (relative stereo)
- ED50 [1, 8]: 0.032 to 0.1 mg/kg
- ED50 [1, 9]: 0.032 to 0.1 mg/kg
- ED50 [1, 10]: 0.1 to 0.32 mg/kg
- ED50 [1, 3]: 0.032 to 0.1 mg/kg
- ED50 [1, 4]: 0.032 to 0.1 mg/kg
- ED50 [1, 5]: 0.1 to 0.32 mg/kg

Structure (SMILES): OC(CCCN1CCC2C(C1)c1cc(F)ccc1N2c1ccc(F)cc1)c1ccc(F)cc1 (single isomer, unassigned) [γ, 8-fluoro-5-(p-fluorophenyl)-2-[4-hydroxy-4-(p-fluorophenyl)butyl]-2,3,4,4a,5,9b-hexahydro-1H-pyrido[4,3-b]indole]
- ED50 (micrograms/kilograms) 1 Hr. ([1]; Part C, 1 hr, s.c. (method)): 180 micrograms/kilograms
- ED50 (micrograms/kilograms) 5 Hrs. ([1]; Part C, 5 hrs, s.c. (method)): 32-100 micrograms/kilograms
- ED50 (micrograms/kilograms) 24 Hrs. ([1]; Part C, 24 hrs, s.c. (method)): 32-100 micrograms/kilograms
- ED50 (mg./kg.) 1 Hr. ([1]; 1 hr): 0.178 mg/kg
- ED50 (mg./kg.) 5 Hrs. ([1]; 5 hrs): 0.045 mg/kg
- ED50 (mg./kg.) 24 Hrs. ([1]; 24 hrs): 0.018 mg/kg
- ED50 (mg./kg.) 48 Hrs. ([1]; 48 hrs): ca. 1 mg./kg.
- ED50 (mg./kg.) 72 Hrs. [1]: > 1 mg/kg

Structure (SMILES): OC(CCCN1CC[C@@H]2[C@@H](C1)c1cc(F)ccc1N2c1ccc(F)cc1)c1ccc(F)cc1 (relative stereo) [αβγδ, dl-trans-8-Fluoro-5-(p-fluorophenyl)-2-[4-hydroxy-4-(p-fluorophenyl)butyl]-2,3,4,4a,5,9b-hexahydro-1H-pyrido[4,3-b]indole hydrochloride]
- IC50 [2]: 21 nM
- ED50 ([1]; sc, 1 h, Part C, 1 hr, s.c. (method), read-out: ED50 (micrograms/kilograms) 1 Hr.): 0.032 to 0.1 mg/kg
- ED50 ([1]; sc, 5 h, Part C, 5 hrs, s.c. (method), read-out: ED50 (micrograms/kilograms) 5 Hrs.): 0.032 to 0.1 mg/kg
- ED50 ([1]; sc, 24 h, Part C, 24 hrs, s.c. (method), read-out: ED50 (micrograms/kilograms) 24 Hrs.): 0.032 to 0.1 mg/kg

Structure (SMILES): OC(CCCN1CCC2C(C1)c1cc(F)ccc1N2c1ccc(F)cc1)c1ccc(F)cc1 (single isomer, unassigned) [β, 8-fluoro-5-(p-fluorophenyl)-2-[4-hydroxy-4-(p-fluorophenyl)butyl]-2,3,4,4a,5,9b-hexahydro-1H-pyrido[4,3-b]indole hydrochloride]
- IC50 [2]: 1800 nM

Structure (SMILES): O=C(CCCN1CC[C@@H]2[C@@H](C1)c1ccccc1N2c1ccccc1)c1ccc(F)cc1 (relative stereo)
- ED50 [1, 4]: 0.1 to 0.32 mg/kg

Structure (SMILES): OC(CCCN1CC[C@@H]2[C@@H](C1)c1cc(F)ccc1N2c1ccc(F)cc1)c1ccc(F)cc1 (relative stereo) [αβ, dl trans-8-fluoro-5-(p-fluorophenyl)-2-[4-hydroxy-4-(p-fluorophenyl)butyl]-2,3,4,4a,5,9b-hexahydro-1H-pyrido[4,3-b]indole]
- IC50 [2]: 23 nM

Structure (SMILES): c1ccc(N2c3ccccc3[C@@H]3CNCC[C@H]32)cc1 (relative stereo) [X1=H, Y1=H, R=H, dl-trans-5-Phenyl-2,3,4,4a,5,9b-hexahydro-1H-pyrido[4,3-b]indole, reference compound]
- ED50 [1, 6]: 3.2 to 32 mg/kg
- ED50 [1, 7]: > 3.2 mg/kg
- ED50 ([1]; sc, 24 h, read-out: ED50 (mg./kg.) 24 Hrs.): > 32 mg/kg

Structure (SMILES): COc1ccc(C(O)CCCN2CCC3C(C2)c2ccccc2N3c2ccccc2)cc1 (stereo not shown)
- ED50 [1, 3]: 0.1 to 0.32 mg/kg
- ED50 [1, 4]: 0.1 to 0.32 mg/kg
- ED50 [1, 5]: ~1 mg/kg

Structure (SMILES): OC(CCCN1CC[C@@H]2[C@@H](C1)c1ccccc1N2c1ccccc1)c1ccc(F)cc1 (relative stereo)
- ED50 [1, 3]: 0.1 to 0.32 mg/kg
- ED50 [1, 4]: 0.1 to 0.32 mg/kg
- ED50 [1, 5]: 0.1 to 0.32 mg/kg

Structure (SMILES): OC(CCCN1CC[C@@H]2[C@@H](C1)c1cc(F)ccc1N2c1ccc(F)cc1)c1ccc(F)cc1 (relative stereo) [drawing 38]
- ED50 [1, 8]: 0.032 to 0.1 mg/kg
- ED50 [1, 9]: 0.032 to 0.1 mg/kg
- ED50 [1, 10]: 0.032 to 0.1 mg/kg
- ED50 ([1]; ip, 48 h, Part B, 48 hrs, i.p., read-out: ED50 (mg./kg.) 48 Hrs.): 0.1 to 0.32 mg/kg
- ED50 ([1]; po, 1 h, Part B, 1 hr, p.o., read-out: ED50 (mg./kg.) 1 Hr.): 0.32 to 1 mg/kg
- ED50 ([1]; po, 5 h, Part B, 5 hrs, p.o., read-out: ED50 (mg./kg.) 5 Hrs.): 0.1 to 0.32 mg/kg
- ED50 ([1]; po, 24 h, Part B, 24 hrs, p.o., read-out: ED50 (mg./kg.) 24 Hrs.): 0.1 to 0.32 mg/kg
- ED50 [1, 3]: 0.032 to 0.1 mg/kg
